System: sulfhydryl oxidase
Assay: Effect of metal ions and EDTA on sulfhydryl oxidase activity
Type: biochemical, bovine
Protocol: In the second method of assay, the rate of O2 consumption was measured with an oscillating platinum electrode using a Gilson model K Oxygraph. In a typical assay, 0.2 ml of enzyme solution was added to 1.5 ml of 0.8 mM GSH which had been equilibrated at 35° in the electrode cell. […] Enzymic reaction rates were calculated from the initial slopes obtained.
Assays were performed in phosphate at pH 7.0 and 35° using 0.8 mM GSH as substrate. An aliquot of the stock enzyme solution was removed and assayed in the presence of 1.0 mM EDTA. […] Controls were prepared using boiled enzyme and also using the dialysate containing the metal ion. In both cases, significant O2 consumption was not observed.

[1] = EDTA-treated enzyme dialyzed against 1.0 mM solution of the metal ion, phosphate pH 7.0, 35°, 0.8 mM GSH

| Compound | Enzyme activity [1] | also measured |
| --- | --- | --- |
| [Cl][Co][Cl] [Cobalt chloride] | 0.021 μmol O2 consumed/min. |  |
| [Br][Mo][Br] [Molybdenum dibromide, molybdenum dibromide] | 0.008 μmol O2 consumed/min. |  |
| O=S(=O)([O-])[O-].[Zn+2] [Zinc sulfate] | 0.029 μmol O2 consumed/min. |  |
| [Cl][Mn][Cl] [Manganese (II) chloride] | 0.085 μmol O2 consumed/min. |  |
| Ferrous sulfate | 0.256 μmol O2 consumed/min. | Restoration of activity after EDTA treatment (dialysis against 1 μM ferrous sulfate): restored |
| O=C(O)CN(CCN(CC(=O)O)CC(=O)O)CC(=O)O [EDTA] |  | Effect of EDTA treatment on enzyme activity: complete loss of activity; Enzyme activity (pH 7): 0.012 μmol O2 consumed/min. |
| O=S(=O)([O-])[O-].[Cu+2] [Copper sulfate] | 0.109 μmol O2 consumed/min. |  |
